Assay results taken from PubChem BioAssay AID1259407 (Chemical Carcinogenesis Research Information System (CCRIS), 2018).
Active and inactive are the calls of the source. No rule for the calls is given here.

Test system: CCRIS mutagenicity, Ames/micronucleus/aberration tests
Assay: CCRIS mutagenicity studies
[1] = Test System: AMES SALMONELLA TYPHIMURIUM, Strain/Indicator: TA98, Metabolic Activation: NONE, Method: PREINCUBATION
[2] = Test System: AMES SALMONELLA TYPHIMURIUM, Strain/Indicator: TA100, Metabolic Activation: NONE, Method: PREINCUBATION
[3] = Test System: AMES SALMONELLA TYPHIMURIUM, Strain/Indicator: TA100, Metabolic Activation: RAT, LIVER, S-9, PCB, Method: PREINCUBATION
[4] = Test System: AMES SALMONELLA TYPHIMURIUM, Strain/Indicator: TA98, Metabolic Activation: NONE, Method: STANDARD PLATE
[5] = Test System: AMES SALMONELLA TYPHIMURIUM, Strain/Indicator: TA100, Metabolic Activation: NONE, Method: STANDARD PLATE

Structure (SMILES): O=C(O)C[C@H](O)C[C@H](O)/C=C/c1c(C2CC2)nc2ccccc2c1-c1ccc(F)cc1
- mutagenic call [1]: inactive; negative
- mutagenic call (Test System: AMES SALMONELLA TYPHIMURIUM, Strain/Indicator: TA98, Metabolic Activation: S-9, Method: PREINCUBATION): inactive; negative
- mutagenic call [2]: inactive; negative
- mutagenic call (Test System: AMES SALMONELLA TYPHIMURIUM, Strain/Indicator: TA100, Metabolic Activation: S-9, Method: PREINCUBATION): inactive; negative
- mutagenic call (Test System: AMES SALMONELLA TYPHIMURIUM, Strain/Indicator: TA1535, Metabolic Activation: NONE, Method: PREINCUBATION): inactive; negative
- mutagenic call (Test System: AMES SALMONELLA TYPHIMURIUM, Strain/Indicator: TA1535, Metabolic Activation: S-9, Method: PREINCUBATION): inactive; negative
- mutagenic call (Test System: AMES SALMONELLA TYPHIMURIUM, Strain/Indicator: TA1537, Metabolic Activation: NONE, Method: PREINCUBATION): inactive; negative
- mutagenic call (Test System: AMES SALMONELLA TYPHIMURIUM, Strain/Indicator: TA1537, Metabolic Activation: S-9, Method: PREINCUBATION): inactive; negative
- mutagenic call (Test System: ESCHERICHIA COLI, Strain/Indicator: WP2 UVR A, Metabolic Activation: NONE, Method: PREINCUBATION): inactive; negative
- mutagenic call (Test System: ESCHERICHIA COLI, Strain/Indicator: WP2 UVR A, Metabolic Activation: S-9, Method: PREINCUBATION): inactive; negative
- mutagenic call (Test System: UDS RAT HEPATOCYTES IN VIVO, Strain/Indicator: CRJ:CD(SD)/THYMIDINE INCORPORATION, Metabolic Activation: NONE, Method: AUTORADIOGRAPHY): inactive; negative

Structure (SMILES): CC(C)(C)OC(=O)CN=[N+]=[N-]
- mutagenic call [3]: active; positive

Structure (SMILES): Cc1ccc(NN=NCc2ccc([N+](=O)[O-])cc2)cc1
- mutagenic call [1]: active; positive
- mutagenic call (Test System: AMES SALMONELLA TYPHIMURIUM, Strain/Indicator: TA98, Metabolic Activation: RAT, LIVER, S-9, PCB, Method: PREINCUBATION): active; positive
- mutagenic call [2]: active; positive
- mutagenic call [3]: active; positive

Structure (SMILES): Cn1nnc2c(C(N)=O)ncn2c1=O
- mutagenic call (End Point: IN VITRO CHROMOSOMAL ABERRATIONS, Test System: HUMAN HCT116/3-6 CELLS, Metabolic Activation: NONE): active; positive
- mutagenic call (End Point: IN VITRO CHROMOSOMAL ABERRATIONS, Test System: HUMAN HCT116 CELLS, Metabolic Activation: NONE): active; positive
- mutagenic call (End Point: IN VITRO CHROMOSOMAL ABERRATIONS, Test System: HUMAN MT1 CELLS, Metabolic Activation: NONE): active; positive
- mutagenic call (End Point: IN VITRO CHROMOSOMAL ABERRATIONS, Test System: HUMAN TK6 CELLS, Metabolic Activation: NONE): active; positive

Structure (SMILES): S=C1SSC2=NCCN12
- mutagenic call (Test System: AMES SALMONELLA TYPHIMURIUM, Strain/Indicator: TA97, Metabolic Activation: NONE, Method: STANDARD PLATE): inactive; negative
- mutagenic call (Test System: AMES SALMONELLA TYPHIMURIUM, Strain/Indicator: TA97, Metabolic Activation: RAT, LIVER, S-9, AROCLOR 1254, Method: STANDARD PLATE): inactive; negative
- mutagenic call [4]: inactive; negative
- mutagenic call (Test System: AMES SALMONELLA TYPHIMURIUM, Strain/Indicator: TA98, Metabolic Activation: RAT, LIVER, S-9, AROCLOR 1254, Method: STANDARD PLATE): inactive; negative
- mutagenic call [5]: inactive; negative

Structure (SMILES): COC1(O[C@H]2CC[C@H]3[C@@H]4CC[C@H]5C[C@@H]6S[C@@H]6C[C@]5(C)[C@H]4CC[C@]23C)CCCC1
- mutagenic call [4]: inactive; negative
- mutagenic call (Test System: AMES SALMONELLA TYPHIMURIUM, Strain/Indicator: TA98, Metabolic Activation: S-9, Method: STANDARD PLATE): inactive; negative
- mutagenic call [5]: inactive; negative
- mutagenic call (Test System: AMES SALMONELLA TYPHIMURIUM, Strain/Indicator: TA100, Metabolic Activation: S-9, Method: STANDARD PLATE): inactive; negative
- mutagenic call (Test System: AMES SALMONELLA TYPHIMURIUM, Strain/Indicator: TA1537, Metabolic Activation: S-9, Method: STANDARD PLATE): inactive; negative
- mutagenic call (Test System: E. COLI, Strain/Indicator: WP2 (HCR), Metabolic Activation: NONE, Method: STANDARD PLATE): inactive; negative
- mutagenic call (Test System: E. COLI, Strain/Indicator: WP2 (HCR), Metabolic Activation: S-9, Method: STANDARD PLATE): inactive; negative

Structure (SMILES): O=c1c(O[C@@H]2O[C@H](CO)[C@H](O)[C@H](O)[C@H]2O)c(-c2ccc(O)c(O)c2)oc2cc(O)cc(O)c12
- mutagenic call (Test System: Ames Salmonella typhimurium, Strain/Indicator: TA98, Metabolic Activation: None, Method: Standard plate): inactive; negative
- mutagenic call (Test System: Ames Salmonella typhimurium, Strain/Indicator: TA98, Metabolic Activation: Rat, Liver, S-9, Aroclor 1254, Method: Standard plate): inactive; negative
